Test results reported in the supplement of paper PMC10307832.

Experiments:
Assay in all cases: relative viability (nuclei count vs DMSO), 5 days (fraction); higher = more cells survive
NVP-TAE684 + Vorinostat = compound: COc1cc(N2CCC(N3CCN(C)CC3)CC2)ccc1Nc1ncc(Cl)c(Nc2ccccc2S(=O)(=O)C(C)C)n1 [NVP-TAE684] + O=C(CCCCCCC(=O)Nc1ccccc1)NO [Vorinostat] (partner 1 µM)
Method in brief: (§1)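 Nuclei were stained with Hoechst during a one-step fixation (final 0.05% Triton X-100, 1% formaldehyde, 1 ug/ml Hoechst) carried out 5 days after dosing, then counted on 4× images. The cells, lung cancer lines in 1536-well plates, had been dosed by pin tool the day after seeding with one drug alone or a fixed anchor-drug dose plus five library-drug doses (not always all listed) in √10 steps. Relative viability is the nuclei count in treated wells divided by that in vehicle wells, and each value is the median of duplicate plates.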

NVP-TAE684 + AZD7762 = compound: COc1cc(N2CCC(N3CCN(C)CC3)CC2)ccc1Nc1ncc(Cl)c(Nc2ccccc2S(=O)(=O)C(C)C)n1 [NVP-TAE684] + NC(=O)Nc1cc(-c2cccc(F)c2)sc1C(=O)N[C@H]1CCCNC1 [AZD7762] (partner 0.2 µM)
Method in brief: as §1

Vandetanib + Foretinib = compound: COc1cc2/c(=N/c3ccc(Br)cc3F)nc[nH]c2cc1OCC1CCN(C)CC1 [Vandetanib] + COc1cc2c(Oc3ccc(NC(=O)C4(C(=O)Nc5ccc(F)cc5)CC4)cc3F)ccnc2cc1OCCCN1CCOCC1 [Foretinib] (partner 0.25 µM)
Method in brief: as §1

[1] = compound: C1=CC=C2C(=C1)N=C(S2)C(C#N)C3=NC(=NC=C3)NCCC4=CN=CC=C4 + O=C(c1cc(Cc2n[nH]c(=O)c3ccccc23)ccc1F)N1CCN(C(=O)C2CC2)CC1 [Olaparib] (partner 8 µM)
Method in brief: as §1

NVP-TAE684 + Bortezomib = compound: COc1cc(N2CCC(N3CCN(C)CC3)CC2)ccc1Nc1ncc(Cl)c(Nc2ccccc2S(=O)(=O)C(C)C)n1 [NVP-TAE684] + CC(C)C[C@H](NC(=O)[C@H](Cc1ccccc1)NC(=O)c1cnccn1)B(O)O [Bortezomib] (partner 0.002 µM)
Method in brief: as §1

Cell Line	relative viability (NVP-TAE684 + Vorinostat; first compound 0.2 µM)	relative viability (NVP-TAE684 + Vorinostat; first compound 0.6325 µM)	relative viability (NVP-TAE684 + Vorinostat; first compound 2 µM)	relative viability (NVP-TAE684 + AZD7762; first compound 0.2 µM)	relative viability (NVP-TAE684 + AZD7762; first compound 0.6325 µM)	relative viability (NVP-TAE684 + AZD7762; first compound 2 µM)	relative viability (Vandetanib + Foretinib; first compound 0.02 µM)	relative viability (Vandetanib + Foretinib; first compound 0.06325 µM)	relative viability (Vandetanib + Foretinib; first compound 0.2 µM)	relative viability (Vandetanib + Foretinib; first compound 0.6325 µM)	relative viability (Vandetanib + Foretinib; first compound 2 µM)	relative viability ([1]; first compound 0.005 µM)	relative viability ([1]; first compound 0.01581 µM)	relative viability ([1]; first compound 0.05 µM)	relative viability ([1]; first compound 0.1581 µM)	relative viability ([1]; first compound 0.5 µM)	relative viability (NVP-TAE684 + Bortezomib; first compound 0.2 µM)	relative viability (NVP-TAE684 + Bortezomib; first compound 0.6325 µM)	relative viability (NVP-TAE684 + Bortezomib; first compound 2 µM)
NCI-H358	0.697	0.608	0.0861	0.55	0.298	0.225	0.657	0.716	0.649	0.646	0.332	0.413	0.658	0.653	0.698	0.419	–	–	–
LK-2	0.271	0.219	0.215	0.49	0.268	0.129	1.19	1.16	0.88	1.22	1.08	0.645	0.804	0.63	0.754	0.766	–	–	–
NCI-H2228	0.467	0.325	0.142	–	–	–	0.92	0.625	0.167	0.803	0.822	0.481	0.738	0.489	0.729	0.527	0.633	0.33	0.214
NCI-H1793	1.14	0.575	0.878	0.479	0.247	0.169	0.605	0.606	0.406	0.648	0.41	–	0.931	0.781	0.995	0.804	–	–	–
NCI-H1563	–	–	–	–	–	–	0.959	0.96	0.885	0.806	0.866	–	–	–	–	–	–	0.755	0.725
NCI-H661	0.817	0.741	0.445	–	–	–	0.972	0.997	0.999	1.07	0.847	0.543	0.8	0.723	0.801	0.613	0.791	0.88	0.842
NCI-H1650	0.573	0.561	0.502	–	–	–	1.28	0.693	0.224	0.753	0.641	0.718	0.719	0.708	0.882	0.507	0.194	0.183	0.173
NCI-H2170	0.771	0.763	0.824	1.04	0.814	0.785	1.04	0.57	1.06	0.978	1.03	0.592	0.686	0.621	0.598	0.458	–	–	–
NCI-H1395	0.71	0.554	0.711	0.417	0.367	0.397	0.969	1.02	1.02	0.972	0.998	0.476	–	0.475	0.457	0.541	–	–	–
NCI-H2009	0.733	0.554	0.495	–	–	–	1.26	1.14	0.197	1.27	1.22	0.667	0.669	0.664	0.438	0.684	0.977	0.897	0.645
NCI-H1623	–	–	–	–	–	–	0.913	0.829	0.8	0.827	0.764	–	–	–	–	–	–	–	–
NCI-H2342	0.848	0.776	0.678	0.463	0.437	0.349	1.08	1.01	1.14	1.17	0.923	0.536	0.454	0.495	0.442	0.45	–	–	–
COR-L23	0.413	0.397	0.101	–	–	–	0.968	1.01	0.942	0.923	0.995	0.318	0.327	0.355	0.373	0.306	–	1.04	0.616
EBC-1	–	–	–	–	–	–	0.0974	0.0982	0.108	0.0939	0.0987	0.784	0.757	0.656	0.629	0.574	0.515	0.544	0.341
NCI-H1944	0.637	0.475	0.486	0.507	0.441	0.348	0.895	0.887	0.904	0.813	0.783	0.358	0.432	0.361	0.41	0.619	–	–	–
NCI-H1299	–	–	–	–	–	–	1.11	1.03	1.12	1.12	1.1	0.966	1.05	1.01	1.05	0.894	1.03	1.02	1.06
Calu-6	–	–	–	–	–	–	0.809	0.86	0.902	0.853	0.856	0.602	0.619	0.52	0.644	0.505	0.875	0.918	0.435
NCI-H1703	–	–	–	0.0907	0.102	0.0966	0.338	0.346	0.42	0.328	0.339	0.357	0.353	–	0.377	0.66	0.315	0.275	0.129
SK-MES-1	0.977	1.09	0.88	–	–	–	0.986	0.802	1.01	0.83	0.665	0.821	0.76	0.617	0.798	0.569	–	–	–
SW 1573	0.745	0.636	0.346	–	–	–	0.965	0.946	0.81	0.91	0.951	0.337	0.491	0.496	0.508	0.484	1.02	–	0.927
NCI-H1648	0.27	0.541	0.181	0.677	0.56	0.399	–	–	–	–	–	–	1.02	–	0.977	1.09	–	–	–
